# Assay results published in paper PMC3913610, “Antitumor Activity and Induction of TP53-Dependent Apoptosis toward Ovarian Clear Cell Adenocarcinoma by the Dual PI3K/mTOR Inhibitor DS-7423” (PLoS ONE, 2014).
# Columns and labels:
# PI3Kα = PI3Kα (Homo sapiens, UniProt P42336); experiment: PI3Kα inhibition; type: biochemical
# mTOR = mTOR (Homo sapiens, UniProt P42345); experiment: mTOR inhibition; type: biochemical
# PI3Kβ = PI3Kβ (Homo sapiens, UniProt P42338); experiment: PI3Kβ inhibition; type: biochemical
# PI3Kγ = PI3Kγ (Homo sapiens, UniProt P48736); experiment: PI3Kγ inhibition; type: biochemical
# PI3Kδ = PI3Kδ (Homo sapiens, UniProt O00329); experiment: PI3Kδ inhibition; type: biochemical
# 227 kinases = experiment: Kinase selectivity panel; type: biochemical; settings: 227 kinases tested, except MLK1 and NEK2
# [1] = biological target: Mixed Lineage Kinase 1 (MLK1) (Homo sapiens, UniProt P80192); experiment: Kinase selectivity panel, MLK1; type: biochemical; settings: MLK1, relevant activity observed
# [2] = biological target: Never-In-Mitosis Gene A (NIMA)-related kinase 2 (NEK2) (Homo sapiens, UniProt P51955); experiment: Kinase selectivity panel, NEK2; type: biochemical; settings: NEK2, relevant activity observed
# nine OCCA cell lines = experiment: Proliferation (MTT/WST-8) assay, OCCA panel; type: cell-based; settings: 156 nM, 72 h
# Description: (§1) Assays of the suppression of cell proliferation were performed with the Cell Counting Kit-8 using the tetrazolium salt WST-8 [2-(2-methoxy-4-nitrophenyl)-3-(4-nitrophenyl)-5-(2,4-disulfophenyl)-2H-tetrazolium, monosodium salt] (Dojindo, Tokyo, Japan) for the methyl thiazolyl tetrazolium (MTT) assay. […] Proliferation was quantified by monitoring the changes in the absorbance at 450 nm, which were normalized relative to the absorbance of cell cultures treated with DMSO alone.
# OVISE cells [3] = experiment: Proliferation (MTT/WST-8) assay; type: cell-based; settings: siRNA to TP53, MTT assay
# Description: as §1
# seven OSA lines = experiment: Proliferation (MTT/WST-8) assay, OSA panel; type: cell-based; settings: four of seven OSA cell lines
# Description: as §1
# [4] = tested on: phosphorylation of AKT, S6, FOXO1/3a in OCCA cells; experiment: Immunoblotting of PI3K/mTOR signaling in OCCA cells; type: cell-based
# Source text: Signals were detected using BioRAD western blotting systems (BioRAD, Hercules, CA) with the detection reagents ECL advance and ECL select (GE Healthcare, Piscataway, NJ).
# OCCA cells = experiment: Cell cycle analysis (flow cytometry), OCCA panel; type: cell-based; settings: 48 h
# Description: Cells (5×10^5) were seeded in 60-mm dishes and treated with DS-7423 for 48 h. Floating and adherent cells were collected by trypsinization and washed twice with phosphate buffer saline (PBS). Cells were resuspended in cold 70% ethanol and maintained at 4°C overnight. After being washed twice with PBS, cells were incubated in RNase A (0.25 mg/mL) (Sigma) for 30 min at 37°C, followed by staining with propidium iodide (PI; 50 μg/mL) (Sigma) at 4°C for 30 min in the dark. Cells were then analyzed using flow cytometry (BD FACS Calibur HG, Franklin Lakes, NJ). Cell cycle distribution was analyzed using CELL Quest pro ver. 3.1. […]. All experiments were repeated three times.
# RMG-I xenografts = experiment: Tumor xenograft in nude mice; type: in vivo
# Source text: (§2) Specific pathogen-free female nude mice (BALB/cAJcl-nu/nu), 6 weeks old, were purchased from CLEA Japan, Inc (Tokyo, Japan). Subcutaneous xenograft tumors in the mice were established by the injection of a 100-μL suspension containing 5×10^6 cells of the TOV-21, RMG-I, or ES-2 lines in PBS. Tumors were removed after exponential growth, cut into 3-mm pieces, and transplanted subcutaneously into other mice for RMG-I cells. DS-7423 was suspended in 0.5 w/v% Methyl Cellulose 400 solution (Wako Pure Chemical Industries, Ltd.) Oral daily administration of DS-7423 started 8–22 days later, following the injection of the cells (5–6×10^6 cells/0.1 mL). One week after tumor transplantation, mice were assigned randomly to one of the […] treatment regimens: (1) non-treated control, (2) DS-7423 (1.5 mg/kg), (3) DS-7423 (3 mg/kg), and (4) DS-7423 (6 mg/kg). Each treatment group consisted of five mice. DS-7423 was injected orally (p.o.) once a day. Tumor volumes (in mm^3) were calculated by the formula: ([major axis] × [minor axis]^2/2). After the treatment, the tumors were removed and analyzed by western blotting. Tumor weight (wet weight) was measured, and the average weight was calculated for each group.
# TOV-21G xenografts = experiment: Tumor xenograft in nude mice; type: in vivo
# Source text: as §2
# ES-2 xenografts = experiment: Tumor xenograft in nude mice; type: in vivo
# Source text: as §2
# Supplementary file pone.0087220.s002.pptx: Figure S2 In vivo effect of DS-7423 in nude mice. […] The levels of p-Akt (Thr-308) and p-S6 (Ser-240/244) were assessed. […]
# OCCA cell lines = experiment: Apoptosis by annexin-V FITC/PI staining, OCCA panel; type: cell-based
# Description: (§3) Cells (5×10^5) were cultured in 60-mm plates for 24 h before treatment with either DMSO (control), and 156 nM DS-7423, or 2,500 nM DS-7423 for 48 h. Cells were trypsinized, washed twice with PBS, and then analyzed after double staining with annexin-V fluorescein isothiocyanate (FITC) (Abcam, Cambridge, MA) and PI. The apoptotic cell population was analyzed using flow cytometry. All experiments were performed three times.
# OVISE cells [5] = experiment: Apoptosis by annexin-V FITC/PI staining; type: cell-based
# Description: as §3
# Cells were plated at approximately 30% confluence in 100-mm plates and incubated for 24 h before transfection with small interfering RNA (siRNA) duplexes at the concentrations indicated, using Lipofectamine […] RNAiMAX (Invitrogen, Carlsbad, CA) and Opti-MEM medium (Life Technologies, Grand Island, NY). The siRNAs specific for TP53 were purchased from Invitrogen. A negative control kit was used as a control (Invitrogen, Carlsbad, CA).
# [6] = tested on: cleavage of PARP in OVMANA cells; experiment: Cleaved PARP immunoblotting; type: cell-based
# Source text: (§4) Antibodies to total Akt, phosphorylation of Akt (p-Akt) (Ser473, Thr308), p-GSK3beta (Ser9), total S6, p-S6 (Ser235/236, Ser 240/244), p-4EBP1 (Thr37/46), p-FOXO1 (Thr24), p-FOXO3a (Thr32), p-MDM2 (Ser 166), p-TP53 (Ser15), cleaved-PARP, and PARP (Cell Signaling Technology, Beverly, MA), beta-actin (Sigma-Aldrich, St. Louis, MO), TP53 (Santa Cruz, CA, USA) and p-TP53 (Ser46) (Calbiochem, Billerica, MA) were used for immunoblotting, as recommended by the manufacturers. Signals were detected using BioRAD western blotting systems (BioRAD, Hercules, CA) with the detection reagents ECL advance and ECL select (GE Healthcare, Piscataway, NJ).
# [7] = tested on: TP53-regulated genes in OVMANA and OVISE cells; experiment: Semi-quantitative RT-PCR of TP53 target genes; type: cell-based
# Source text: Total RNAs of these cells were extracted with the RNeasy Mini Kit according to the manufacturer's instructions (QIAGEN, Valencia, CA). cDNAs were synthesized from total RNAs by using the Super Script III First-strand Synthesis SuperMix (Invitrogen, Carlsbad, CA). The exponential phase of the RT-PCR occurred between 15–30 cycles, and these cycles were monitored to allow semi-quantitative comparisons among the cDNAs developed from identical reactions. The primers and conditions for the amplification of p53AIP1, p21, and GAPDH sequences were described previously. The PCR primers for PUMA were 5′-[…]-3′ (forward) and 5′-[…] CTC-3′ (reverse). The primers for p53R2, TIGAR, GLS2, GADD45, 14-3-3 sigma and PAI-1 were described previously [30]–[35]. Each PCR regimen involved a 2-min initial denaturation step (94°C), which was followed by 15–30 cycles at 94°C for 30 s, then at 55°C for 30 s, and finally, at 72°C for 30 s using a Thermal Cycler Gene Atlas instrument (ASTEC, Fukuoka, Japan).
# [8] = tested on: p-MDM2, p-TP53 in OVMANA cells; experiment: Immunoblotting of p-MDM2 and p-TP53; type: cell-based
# Source text: as §4
# JHOC-7 cells = experiment: Proliferation (MTT/WST-8) assay; type: cell-based; settings: JHOC-7, 72 h
# Description: as §1
# OVMANA cells = experiment: Proliferation (MTT/WST-8) assay; type: cell-based; settings: 72 h
# Description: as §1
# OVTOKO cells = experiment: Proliferation (MTT/WST-8) assay; type: cell-based; settings: 72 h
# Description: as §1
# RMG-I cells = experiment: Proliferation (MTT/WST-8) assay; type: cell-based; settings: Homo sapiens, RMG-1, 72 h
# Description: as §1
# SKOV3 cells = experiment: Proliferation (MTT/WST-8) assay; type: cell-based; settings: Homo sapiens, SK-OV-3; SKOV3, 72 h
# Description: as §1
# recurrent OCCA = tested on: recurrent OCCA; set-up: method as in PMID 21243393; settings: six cases, weekly administration, recurrent OCCA patients ref 39; cited from earlier work
# Chain of PI3Kδ (O00329 whole entry): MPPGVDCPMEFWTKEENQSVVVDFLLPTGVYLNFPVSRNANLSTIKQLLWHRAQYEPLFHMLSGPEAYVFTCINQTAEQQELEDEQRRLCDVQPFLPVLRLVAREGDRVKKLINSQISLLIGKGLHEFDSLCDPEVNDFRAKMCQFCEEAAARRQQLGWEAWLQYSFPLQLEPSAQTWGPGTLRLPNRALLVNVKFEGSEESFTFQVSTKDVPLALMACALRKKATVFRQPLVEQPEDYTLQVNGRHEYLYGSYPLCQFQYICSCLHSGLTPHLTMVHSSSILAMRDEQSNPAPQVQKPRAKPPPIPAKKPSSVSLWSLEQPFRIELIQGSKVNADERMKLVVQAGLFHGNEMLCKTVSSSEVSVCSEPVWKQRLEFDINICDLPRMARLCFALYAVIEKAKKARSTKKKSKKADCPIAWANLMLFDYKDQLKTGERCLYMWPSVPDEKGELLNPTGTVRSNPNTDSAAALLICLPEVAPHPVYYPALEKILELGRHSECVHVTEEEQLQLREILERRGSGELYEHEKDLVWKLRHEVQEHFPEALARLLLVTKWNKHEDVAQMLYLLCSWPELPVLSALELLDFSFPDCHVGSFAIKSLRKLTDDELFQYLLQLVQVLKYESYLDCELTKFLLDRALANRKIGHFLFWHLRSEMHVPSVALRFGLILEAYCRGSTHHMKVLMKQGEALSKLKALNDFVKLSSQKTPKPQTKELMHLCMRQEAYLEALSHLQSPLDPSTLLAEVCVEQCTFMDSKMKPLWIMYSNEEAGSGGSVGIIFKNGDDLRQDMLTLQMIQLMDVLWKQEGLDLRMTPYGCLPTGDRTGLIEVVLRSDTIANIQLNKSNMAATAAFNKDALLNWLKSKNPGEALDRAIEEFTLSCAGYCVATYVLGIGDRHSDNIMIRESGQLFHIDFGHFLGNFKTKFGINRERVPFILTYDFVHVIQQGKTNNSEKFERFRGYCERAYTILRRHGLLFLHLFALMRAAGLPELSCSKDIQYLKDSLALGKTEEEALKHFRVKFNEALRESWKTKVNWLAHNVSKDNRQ
# Chain of PI3Kδ (P27986 whole entry partner): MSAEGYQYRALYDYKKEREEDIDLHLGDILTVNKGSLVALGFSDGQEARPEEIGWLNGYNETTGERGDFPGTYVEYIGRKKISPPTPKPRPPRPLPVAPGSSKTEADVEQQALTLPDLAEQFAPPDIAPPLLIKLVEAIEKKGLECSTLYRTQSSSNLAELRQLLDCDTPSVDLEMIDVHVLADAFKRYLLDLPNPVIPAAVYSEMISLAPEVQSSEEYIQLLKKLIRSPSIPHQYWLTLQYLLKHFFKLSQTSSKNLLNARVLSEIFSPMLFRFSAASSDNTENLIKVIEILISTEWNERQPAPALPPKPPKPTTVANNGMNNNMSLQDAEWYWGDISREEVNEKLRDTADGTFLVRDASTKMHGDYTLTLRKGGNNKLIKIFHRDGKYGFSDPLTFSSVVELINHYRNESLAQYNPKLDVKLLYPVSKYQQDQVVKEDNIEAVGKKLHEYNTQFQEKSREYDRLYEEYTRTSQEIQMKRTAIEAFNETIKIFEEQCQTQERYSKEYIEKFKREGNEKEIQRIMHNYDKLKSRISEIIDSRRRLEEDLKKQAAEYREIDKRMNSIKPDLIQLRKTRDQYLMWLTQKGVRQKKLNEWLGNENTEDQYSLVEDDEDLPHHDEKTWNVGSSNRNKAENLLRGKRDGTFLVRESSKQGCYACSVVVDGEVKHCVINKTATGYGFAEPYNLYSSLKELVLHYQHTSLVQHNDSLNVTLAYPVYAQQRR
# Chain of PI3Kα (P42336 whole entry): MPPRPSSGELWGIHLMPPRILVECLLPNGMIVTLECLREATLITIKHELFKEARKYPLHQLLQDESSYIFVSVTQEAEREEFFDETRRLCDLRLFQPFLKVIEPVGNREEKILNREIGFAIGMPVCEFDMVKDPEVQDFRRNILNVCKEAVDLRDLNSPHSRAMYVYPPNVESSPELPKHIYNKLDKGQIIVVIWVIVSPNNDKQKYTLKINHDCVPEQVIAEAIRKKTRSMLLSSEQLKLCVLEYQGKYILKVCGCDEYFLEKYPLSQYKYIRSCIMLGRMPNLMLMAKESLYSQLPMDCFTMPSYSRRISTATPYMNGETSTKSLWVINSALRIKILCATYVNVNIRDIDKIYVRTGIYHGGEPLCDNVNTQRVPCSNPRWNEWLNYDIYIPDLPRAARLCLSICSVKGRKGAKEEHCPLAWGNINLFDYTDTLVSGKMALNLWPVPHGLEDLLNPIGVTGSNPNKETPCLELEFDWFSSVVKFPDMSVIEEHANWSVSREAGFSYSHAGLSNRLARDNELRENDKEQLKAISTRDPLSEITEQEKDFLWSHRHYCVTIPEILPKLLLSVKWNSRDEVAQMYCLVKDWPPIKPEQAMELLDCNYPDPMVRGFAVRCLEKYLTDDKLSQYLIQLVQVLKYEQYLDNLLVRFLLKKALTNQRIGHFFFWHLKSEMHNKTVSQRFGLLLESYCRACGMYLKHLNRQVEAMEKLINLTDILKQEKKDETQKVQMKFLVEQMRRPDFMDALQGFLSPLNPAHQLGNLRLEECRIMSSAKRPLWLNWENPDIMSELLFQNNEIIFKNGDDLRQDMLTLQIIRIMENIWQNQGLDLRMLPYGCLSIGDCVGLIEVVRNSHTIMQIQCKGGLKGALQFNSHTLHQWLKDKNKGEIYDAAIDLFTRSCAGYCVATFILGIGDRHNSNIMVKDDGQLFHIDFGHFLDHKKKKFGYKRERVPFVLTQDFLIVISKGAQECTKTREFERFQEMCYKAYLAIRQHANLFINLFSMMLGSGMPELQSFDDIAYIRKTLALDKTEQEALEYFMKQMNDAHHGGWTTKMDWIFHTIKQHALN
# Chain of PI3Kα (P27986 whole entry partner): as the sequence (P27986 whole entry partner) above
# Chain of Mixed Lineage Kinase 1 (MLK1) (P80192 whole entry, species assumed): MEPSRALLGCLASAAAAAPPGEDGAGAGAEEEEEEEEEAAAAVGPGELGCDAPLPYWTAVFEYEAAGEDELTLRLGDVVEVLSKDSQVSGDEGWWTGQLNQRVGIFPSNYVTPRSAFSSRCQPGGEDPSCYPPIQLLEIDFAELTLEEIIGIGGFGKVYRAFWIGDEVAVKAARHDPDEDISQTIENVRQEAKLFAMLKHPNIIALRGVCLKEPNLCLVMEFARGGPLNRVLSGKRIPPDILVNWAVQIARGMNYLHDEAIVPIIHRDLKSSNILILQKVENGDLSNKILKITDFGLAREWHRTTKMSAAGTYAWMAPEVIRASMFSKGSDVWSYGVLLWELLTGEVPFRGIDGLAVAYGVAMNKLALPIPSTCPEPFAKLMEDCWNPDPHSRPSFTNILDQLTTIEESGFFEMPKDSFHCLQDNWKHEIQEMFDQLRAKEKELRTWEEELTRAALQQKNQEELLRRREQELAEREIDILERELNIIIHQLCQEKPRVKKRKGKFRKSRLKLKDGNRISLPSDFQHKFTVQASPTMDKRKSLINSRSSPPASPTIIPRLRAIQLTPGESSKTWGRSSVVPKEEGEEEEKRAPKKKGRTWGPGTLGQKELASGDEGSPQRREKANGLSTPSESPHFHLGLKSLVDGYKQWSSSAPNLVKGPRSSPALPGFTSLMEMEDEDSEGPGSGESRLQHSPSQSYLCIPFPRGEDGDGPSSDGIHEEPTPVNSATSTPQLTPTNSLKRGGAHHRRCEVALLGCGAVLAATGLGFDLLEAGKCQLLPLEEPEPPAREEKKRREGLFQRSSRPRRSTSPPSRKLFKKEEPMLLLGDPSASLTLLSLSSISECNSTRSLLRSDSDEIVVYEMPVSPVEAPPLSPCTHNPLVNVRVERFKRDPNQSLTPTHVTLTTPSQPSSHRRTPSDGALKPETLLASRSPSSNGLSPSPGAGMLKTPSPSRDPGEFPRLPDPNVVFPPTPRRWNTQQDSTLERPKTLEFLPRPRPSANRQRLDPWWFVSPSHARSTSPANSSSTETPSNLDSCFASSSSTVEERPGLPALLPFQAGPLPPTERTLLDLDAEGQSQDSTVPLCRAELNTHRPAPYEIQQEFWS
# Chain of Never-In-Mitosis Gene A (NIMA)-related kinase 2 (NEK2) (P51955 whole entry, species assumed): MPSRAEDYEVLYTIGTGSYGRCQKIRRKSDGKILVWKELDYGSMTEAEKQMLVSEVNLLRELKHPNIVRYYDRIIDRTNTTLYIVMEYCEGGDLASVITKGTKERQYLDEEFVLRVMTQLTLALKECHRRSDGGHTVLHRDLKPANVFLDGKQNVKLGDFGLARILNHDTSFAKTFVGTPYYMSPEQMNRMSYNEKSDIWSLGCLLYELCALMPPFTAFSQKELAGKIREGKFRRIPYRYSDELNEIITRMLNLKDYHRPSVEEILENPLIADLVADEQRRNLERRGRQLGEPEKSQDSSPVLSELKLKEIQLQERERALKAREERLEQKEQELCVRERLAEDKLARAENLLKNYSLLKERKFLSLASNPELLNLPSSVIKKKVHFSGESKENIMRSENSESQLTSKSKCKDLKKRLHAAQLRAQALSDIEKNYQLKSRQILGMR
smiles,measurement,setting,value
CC(=O)N1CCN(c2nc3c(N4CCOCC4)nc(-c4cnc(N)nc4)nc3n2CC(F)(F)F)C[C@H]1C [DS-7423],IC50,PI3Kα,15.6 nM
same,IC50,mTOR,34.9 nM
same,IC50,PI3Kβ,1140 nM
same,IC50,PI3Kγ,249 nM
same,IC50,PI3Kδ,262 nM
same,Relevant activity (IC50 <200 nM),227 kinases,not observed
same,IC50,[1],< 200 nM
same,IC50,[2],< 200 nM
same,inhibition of cell growth,nine OCCA cell lines,70%–97%
same,anti-proliferative effect when combined with knockdown of TP53,OVISE cells [3],significantly reduced
same,IC50,seven OSA lines,> 100 nM
same,doses suppressing phosphorylation of AKT (Thr308 and Ser473) and S6 (Ser235/236 and Ser240/244),"[4]; these doses and higher, OCCA cells",39 to 156 nM
same,size of the S-phase population,"OCCA cells; OCCA cells, change weak in ES-2",decreased
same,sizes of sub-G1 populations,OCCA cells; six of the nine cell lines,increased in a dose-dependent manner
same,"adverse effects, including body weight loss of more than 10%","RMG-I xenografts; RMG-I xenograft mice, oral daily 1.5, 3 or 6 mg/kg",No significant adverse effects
same,levels of p-AKT (Thr308) and p-S6 (Ser240/244) in xenografts,"RMG-I xenografts; RMG-I xenografts, 2 and 6 h after last administration",suppressed
same,tumor growth of xenografts,"RMG-I xenografts; RMG-I, oral daily 1.5, 3 or 6 mg/kg, dose-dependent",significantly suppressed
same,"adverse effects, including body weight loss of more than 10%","TOV-21G xenografts; TOV-21G xenograft mice, oral daily 1.5, 3 or 6 mg/kg",No significant adverse effects
same,levels of p-AKT (Thr308) and p-S6 (Ser240/244) in xenografts,"TOV-21G xenografts; TOV-21G xenografts, 2 and 6 h after last administration",suppressed
same,tumor growth of xenografts,"TOV-21G xenografts; TOV-21G, oral daily 1.5, 3 or 6 mg/kg, dose-dependent",significantly suppressed
same,anti-tumor effect compared with TOV-21G and RMG-I xenografts,ES-2 xenografts,weaker
same,estimated tumor volumes compared to the control,"ES-2 xenografts; 6 mg/kg daily, totally 8 times",smaller
same,apoptosis (annexin-V FITC/PI),"OCCA cell lines; 156 nM, 48 h, five of the six cell lines that lacked mutations in TP53",4–12%
same,apoptosis (annexin-V FITC/PI),"OCCA cell lines; 2,500 nM, 48 h, five cell lines without TP53 mutations",10–16%
same,ratio of apoptotic cells,OCCA cell lines; even at high concentrations,less than 20%
same,apoptosis (annexin-V FITC/PI),"OCCA cell lines; three cell lines with TP53 mutations, any of the doses tested",≤ 5%
same,percentage of apoptotic cells compared with rapamycin,OVISE cells [5]; OVISE cells,significantly higher
same,apoptotic cell death after knockdown of TP53,"OVISE cells [5]; OVISE, TP53 siRNA, 156 or 2,500 nM, 48 h",rescued
same,concentration at which induction of cleaved-PARP was observed,"[6]; 4 h, dose-dependent up to 2,500 nM",39 nM
same,time to cleavage of PARP,"[6]; OVMANA cells without mutations in TP53, 156 nM",≤ 2 h
same,expression of p21,"[7]; 39, 156, and 2,500 nM, 24 h",did not induce
same,expression of GADD45,[7]; OVISE cells,significantly induced
same,doses inducing expression of p53AIP1 and PUMA,"[7]; OVMANA and OVISE cells, 24 h",≥ 39 nM
same,expression of TIGAR,[7]; OVMANA cells,decreased
same,"doses clearly inducing p-TP53 (Ser46), not p-TP53 (Ser15)",[8]; OVMANA cells,"156–2,500 nM"
same,level of p-MDM2,[8]; dose-dependent,reduced
CO[C@H]1C[C@@H]2CC[C@@H](C)[C@@](O)(O2)C(=O)C(=O)N2CCCC[C@H]2C(=O)O[C@H]([C@H](C)C[C@@H]2CC[C@@H](O)[C@H](OC)C2)CC(=O)[C@H](C)/C=C(\C)[C@@H](O)[C@@H](OC)C(=O)[C@H](C)C[C@H](C)/C=C/C=C/C=C/1C [rapamycin],IC50,JHOC-7 cells,> 2560 nM
same,IC50,OVMANA cells,> 2560 nM
same,IC50,OVTOKO cells,> 2560 nM
same,IC50,RMG-I cells,> 2560 nM
same,IC50,SKOV3 cells,> 2560 nM
same,levels of p-FOXO3a and p-FOXO1,"[4]; 2,500 nM, OVISE",increased
same,suppression of p-Akt,"[4]; any dose (0 to 2,500 nM), OVISE",did not suppress
same,apoptotic cell death,"OCCA cell lines; OCCA cells, even at 2,500 nM",≤ 5%
CO[C@H]1C[C@@H]2CC[C@@H](C)[C@@](O)(O2)C(=O)C(=O)N2CCCC[C@H]2C(=O)O[C@H]([C@H](C)C[C@@H]2CC[C@@H](OC(=O)C(C)(CO)CO)[C@H](OC)C2)CC(=O)[C@H](C)/C=C(\C)[C@@H](O)[C@@H](OC)C(=O)[C@H](C)C[C@H](C)/C=C/C=C/C=C/1C [temsirolimus],clinical response,recurrent OCCA,partial response in one patient and stable disease in another patient
